# Read-outs that look alike come from different tables or passages of the source.
# What was measured:
# [1] = tested on: glioma cells; assay: Cell survival/viability assays in glioma cells (general statements); assay type: cell-based; details: for synergy with EGFR inhibition in cell survival assays: FIG. 5
# [2] = tested on: GBM12 cells; assay: RNAseq transcriptome and pathway analysis after erlotinib; assay type: cell-based, human
# Excerpt: These q-values are corrected from p-values of the hypergeometric test, for multiple testing using the false discovery rate (FDR) method.
# [3] = Toxicity in mice by gavage; details: 50-100 mg/kg by gavage
# [4] = Human, cited from earlier work
# [5] = tested on: GBM 12 or GBM6 cells; assay: ROS by MitoTracker Red CM-H2XRos; assay type: cell-based, human; details: erlotinib 1 uM, 24 hours
# Excerpt: Oxidative stress. Without wishing to be bound by theory, it is hypothesized that a sudden inhibition of EGFR signaling may increase oxidative stress and thus activate Nrf2. Previous studies have reported that EGFR inhibition leads to increased oxidative stress in lung and head and neck cancers (Orcutt, et al. (2011) Erlotinib-mediated inhibition of EGFR signaling induces metabolic oxidative stress through NOX4, Cancer Res 71, 3932-3940; Qian, et al. (2009) Clin Exp Pharmacol Physiol 36, 487-494). […] MitoTracker® Red CM-H2XRos (Fisher), a reduced nonfluorescent dye which is taken up passively by living cells, will be used. In the mitochondria, the dye is oxidized by superoxide, resulting in the emission of red fluorescence.
# MitoTracker® Red CM-H2XRos (Fisher) was added to culture media at a concentration of 100 nM and incubated at 37° C. in a humidified incubator containing 5% CO2 for 30 minutes, the cells were then fixed in ice-cold methanol for 15 min at −20° C. followed by fluorescence microscopy.
# [6] = tested on: Keap1; assay: Cellular level of total Keap1; assay type: cell-based; details: data not shown
# [7] = tested on: p21; assay: p21 response to erlotinib (FIG. 12); assay type: cell-based; details: in response to erlotinib
# Excerpt: p21. p21Cip1/WAF1 is a cyclin-dependent kinase inhibitor that regulates the cell cycle and acts as an antioxidant. The antioxidant function of p21 is mediated through stabilization of Nrf2. Thus, p21 is an interesting target for study.
# [8] = tested on: Mayo PDX GBM12 cells; assay: GSH/GSSG ratio by metabolite profiling (LC-MS/MS); assay type: cell-based, human; details: GBM12, 24 hour exposure, means±SD of four experiments
# Excerpt: Determination of GSH levels will be undertaken at a Biochemistry Core Facility at UT Southwestern using metabolite profiling as previously described (Krall, et al. (2017) KEAP1 loss modulates sensitivity to kinase targeted therapy in lung cancer, Elife 6; Yuan, et al. (2012) Nat Protoc 7, 872-881). Samples will be analyzed by liquid chromatography tandem mass spectrometry (LC-MS/MS) using positive ion/negative ion polarity switching via selected reaction monitoring (SRM) on a 5500 QTRAP hybrid triple quadrupole mass spectrometer. Peaks will be integrated using MultiQuant 2.1 data analysis software (AB/SCIEX). The ratio of reduced intracellular glutathione to oxidized glutathione is a measure of oxidative stress.
# Data are presented as means±SD of four experiments. […] GSH, reduced glutathione; GSSG, oxidized glutathione.
# [9] = Mouse, cited from earlier work; for T½: parent drug (SASP for Sulfazaline)
# [10] = tested on: preclinical GBM models; assay: Preliminary orthotopic GBM experiments (FIG. 6, general statements); assay type: in vivo
# [11] = tested on: GBM12 cells; assay: Alamarblue cell viability assay, GBM12; assay type: cell-based, human; details: GBM12, 72 hours; ML385 1 μm, INH 1 μm, sulfasalazine 5 μm
# Excerpt: ML385 (1 μm) and isoniazid (INH 1 μm) are Nrf2 inhibitors while Erastin and sulfasalazine (5 μm) are xCT inhibitors.
# [12] = in vivo; cited from earlier work
# [13] = parent drug (SASP for Sulfazaline)
# [14] = parent drug (SASP for Sulfazaline), dose per Table 5
# [15] = TNF inhibitor added to erlotinib
compound,measurement,setting,value
"CCc1cc(C(N)=S)ccn1 [Ethionamide, ethionamide]","synergy with EGFR inhibition, cell viability assay","[1]; erlotinib 1 μM and/or ethionamide 1 μM, 72 hours",synergizes with EGFR inhibition
"C#Cc1cccc(Nc2ncnc3cc(OCCOC)c(OCCOC)cc23)c1 [Erlotinib, erlotinib]","Genes, Erl-induced pathway",[2]; Axon guidance,42
same,"Genes, Erl-induced pathway",[2]; Ectoderm Differentiation,35
same,"Genes, Erl-induced pathway",[2]; Glutathione conjugation,14
same,"Genes, Erl-induced pathway",[2]; NRF2 pathway,40
same,"Genes, Erl-induced pathway",[2]; Validated targets of C-MYC transcriptional repression,23
same,"Genes, Erl-induced pathway",[2]; Validated transcriptional targets of Tap63 isoforms,19
same,genes upregulated by RNAseq,"[2]; erlotinib 1 μM, 24 hours, GBM 12 cells",3635
same,GPX3 expression in GBM,[2]; in response to erlotinib (FIG. 3),upregulated
same,toxicity,[3],without significant toxicity
same,Cmax,[4]; [13],872 ng/mL
same,AUC,[4]; [14],"11,860 ng * hr/ml"
same,ROS (Mitotracker dye),[5],increase in ROS
same,cellular level of total Keap1,[6],not changed
same,p21 level,[7],not upregulated
same,GSH/GSSG,[8],68.5 ± 15.2
same,AUC,[9]; 12.5 mg/kg QD,"27,042 ng * hr/ml"
same,Cmax,[9]; 12.5 mg/kg QD,"3,513 ng/mL"
same,T½,[9],3.1 h
"CN(C)C/C=C/C(=O)Nc1cc2c(Nc3ccc(F)c(Cl)c3)ncnc2cc1O[C@H]1CCOC1 [Afatinib, afatinib]",AUC,[4]; [13],(~1-2 μM * hr
same,Cmax,[4]; [13],30 to 40 ng/mL
same,T½,[4]; [13],60.3 h
same,AUC,[4]; [14],459 to 956 ng·h/mL
same,Cmax,[4]; read-out: Cmax,60 to 80 nM
same,AUC,[9]; 30 mg/kg QD,(2375 nM * hr
same,Cmax,[9]; 30 mg/kg QD,417 nM
same,T½,[9],5 h
"NNC(=O)c1ccncc1 [INH, isoniazid]",AUC,[4]; 150 mg QD for 6 months,19700 ng·h/mL
same,Cmax,[4]; 150 mg QD for 6 months,4830 ng/mL
same,tumor growth / efficacy in orthotopic experiments,[10],no effect
same,"sensitization of cells to erlotinib, cell viability",[11],sensitizes
same,CNS penetration,[12],highly CNS penetrable
same,synergy with EGFR inhibition in cell survival assays,[1],synergizes with EGFR inhibition
same,AUC,[9]; 25 mg/kg QD for 4 wks,27.3 mg·h/L
same,Cmax,[9]; 25 mg/kg QD for 4 wks,22 µg/mL
etanercept,block of the 40 NRF2 target genes induced by erlotinib,[2]; [15],could not be blocked
same,upregulation of erlotinib induced genes blocked,[2]; [15],25%
O=C(O)c1cc(/N=N/c2ccc(S(=O)(=O)Nc3ccccn3)cc2)ccc1O [sulfasalazine],AUC,[4]; [13],(122 μM * hr
same,Cmax,[4]; [13],5351 ng/mL
same,T½,[4]; [13],9.8 h
same,AUC,[4]; [14],"48,500 ng * hr/ml"
same,"sensitization of cells to erlotinib, cell viability",[11],sensitizes
same,synergy with EGFR inhibition in cell survival assays,[1],synergizes with EGFR inhibition
same,AUC of SASP,"[9]; 67.5 mg/kg QD for 3 wks, analyte SASP",SASP: 21 μM * hr
same,T½,[9],0.9 h
Cc1ccccc1C(=O)N1CCc2cc(-c3nc(NC(=O)Cc4ccc5c(c4)OCO5)sc3C)ccc21 [ML385],"sensitization of cells to erlotinib, cell viability",[11],sensitizes

# From patent US20230130791A1, “A Combined Inhibition of EGFR and NRF2 in The Treatment of Malignant Glioma” (United States Government as represented by the Department …, priority 2020, published 2023)
